This assay has as its target T1, human parathyroid cell Ca^2+ receptor (hPCaR) (Homo sapiens, UniProt P41180).
T1 construct: expressed in transfected cells
T1 sequence (P41180 20-1078): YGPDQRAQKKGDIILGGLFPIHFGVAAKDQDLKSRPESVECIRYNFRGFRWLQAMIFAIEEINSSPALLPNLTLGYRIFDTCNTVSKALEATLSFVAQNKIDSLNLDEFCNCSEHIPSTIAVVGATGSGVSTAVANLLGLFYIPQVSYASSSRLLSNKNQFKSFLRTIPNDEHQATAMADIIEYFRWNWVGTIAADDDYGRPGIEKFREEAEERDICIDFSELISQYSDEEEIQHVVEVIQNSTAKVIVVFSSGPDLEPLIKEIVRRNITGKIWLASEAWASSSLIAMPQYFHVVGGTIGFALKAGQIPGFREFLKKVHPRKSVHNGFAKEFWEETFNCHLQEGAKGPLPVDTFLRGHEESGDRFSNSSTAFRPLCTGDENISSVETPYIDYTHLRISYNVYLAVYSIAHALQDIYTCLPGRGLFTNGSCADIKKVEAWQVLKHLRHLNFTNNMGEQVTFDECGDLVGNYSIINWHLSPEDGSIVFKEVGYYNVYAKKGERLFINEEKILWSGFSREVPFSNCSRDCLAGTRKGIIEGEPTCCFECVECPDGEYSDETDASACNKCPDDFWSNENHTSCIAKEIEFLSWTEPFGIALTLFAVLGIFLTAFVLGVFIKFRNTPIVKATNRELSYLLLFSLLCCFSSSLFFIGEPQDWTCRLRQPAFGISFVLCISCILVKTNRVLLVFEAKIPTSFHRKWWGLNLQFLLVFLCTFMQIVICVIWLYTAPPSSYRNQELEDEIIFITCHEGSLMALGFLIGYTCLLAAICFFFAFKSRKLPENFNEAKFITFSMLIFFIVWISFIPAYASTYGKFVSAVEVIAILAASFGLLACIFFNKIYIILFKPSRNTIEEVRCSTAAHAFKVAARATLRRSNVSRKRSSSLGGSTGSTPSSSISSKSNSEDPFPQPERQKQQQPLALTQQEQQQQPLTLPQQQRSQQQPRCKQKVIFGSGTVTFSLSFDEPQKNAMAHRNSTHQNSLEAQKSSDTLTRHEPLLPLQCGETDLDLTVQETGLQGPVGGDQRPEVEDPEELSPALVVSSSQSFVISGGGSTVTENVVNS
Put plainly: [Ca2+]i measurement with fluo-3 in HEK 293 4.0-7 cells stably transfected with hPCaR. Format: cell-based. As to conditions: fluo-3 fluorescence (485/530 nm), effect on [Ca^2+]i. The method, boiled down:
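Cytosolic [Ca2+] was read as fluo-3 fluorescence (ex 485/em 530 nm) after compound addition to washed cells. Cells were hPCaR-transfected HEK 293 clone 7, dye-loaded 30 min at 37 °C with 2 μM fluo-3 acetoxymethyl ester in HEPES-buffered saline pH 7.45 containing 1 mM CaCl2 and 0.5% BSA.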

These results are taken from patent US6908935B2, “Calcium receptor modulating agents” (Amgen Inc., priority 2002, dated 2005).

`COc1ccc(-c2cc(CN[C@H](C)c3ccc4ccccc4c3)ccc2OC)nn1` [(1R)-N-((4-(methyloxy)-3-(6-(methyloxy)-3-pyridazinyl)phenyl)methyl)-1-(2-naphthalenyl)ethanamine]: the EC50 was at most 10 µM.

With `COc1ccc(CN[C@H](C)c2ccc3ccccc3c2)cc1-c1nccs1` [(1R)-N-((4-(methyloxy)-3-(1,3-thiazol-2-yl)phenyl)methyl)-1-(2-naphthalenyl)ethanamine], the EC50 was at most 10 µM.

In turn, `C[C@@H](NCc1ccc(Cl)c(-c2ccc(OCC(F)(F)F)nc2)c1)c1cccc2ccccc12` [(1R)-N-((4-chloro-3-(6-((2,2,2-trifluoroethyl)oxy)-3-pyridinyl)phenyl)methyl)-1-(1-naphthalenyl)ethanamine] displayed an EC50 of at most 10 µM.

The compound `COc1ccc(CN[C@H](C)c2ccc3ccccc3c2)cc1-c1cncc(C(N)=O)c1` [5-(2-(methyloxy)-5-((((1R)-1-(2-naphthalenyl)ethyl)amino)methyl)phenyl)-3-pyridinecarboxamide] gave an EC50 of at most 10 µM.

For the compound `C[C@@H](NCc1cccc(-c2ccc3c(c2)OCO3)c1)c1ccccc1` [(1R)-N-((3-(1,3-benzodioxol-5-yl)phenyl)methyl)-1-phenylethanamine], the EC50 was at most 10 µM.

As for `CC(=O)Nc1ccc(-c2cccc(CN[C@H](C)c3ccccc3)c2)cn1` [Example 250, N-(5-(3-((((1R)-1-phenylethyl)amino)methyl)phenyl)-2-pyridinyl)acetamide], the EC50 is at most 10 µM.

In the case of `COc1ccc([C@@H](C)NCc2cccc(-c3ccccc3F)c2)cc1` [(1R)-N-((2′-fluoro-1,1′-biphenyl-3-yl)methyl)-1-(4-(methyloxy)phenyl)ethanamine], the EC50 was at most 10 µM.

For `COc1ccc(CN[C@H](C)c2ccccc2)cc1-c1coc(C)n1` [(1R)-N-((3-(2-methyl-1,3-oxazol-4-yl)-4-(methyloxy)phenyl)methyl)-1-phenylethanamine], the EC50 is at most 10 µM.

`COc1ccc(CN[C@H](C)c2ccccc2)cc1-c1ccc(C(=O)N(C)C)cc1` [N,N-dimethyl-2′-(methyloxy)-5′-((((1R)-1-phenylethyl)amino)methyl)-1,1′-biphenyl-4-carboxamide] showed an EC50 of at most 10 µM.

`COc1cccc([C@@H](C)NCc2ccc(OC)c(-c3nccs3)c2)c1` [(1R)-1-(3-(methyloxy)phenyl)-N-((4-(methyloxy)-3-(1,3-thiazol-2-yl)phenyl)methyl)ethanamine] displayed an EC50 of at most 10 µM.

As for `C[C@@H](NCc1ccc(I)c(-c2ccc(C(F)(F)F)cc2)c1)c1cccc2ccccc12` [(1R)-N-((6-iodo-4′-(trifluoromethyl)-1,1′-biphenyl-3-yl)methyl)-1-(1-naphthalenyl)ethanamine], the EC50 is at most 10 µM.

Take `COc1ccc(CN[C@H](C)c2ccccc2)cc1-c1cccnc1NCCCN1CCOCC1` [3-(2-(methyloxy)-5-((((1R)-1-phenylethyl)amino)methyl)phenyl)-N-(3-(4-morpholinyl)propyl)-2-pyridinamine]: the EC50 is at most 10 µM.

With `COc1ccc(CN[C@H](C)c2cccc3ccccc23)cc1-c1ccc2c(ccn2CC2CC2)c1` [(1R)-N-((3-(1-(cyclopropylmethyl)-1H-indol-5-yl)-4-(methyloxy)phenyl)methyl)-1-(1-naphthalenyl)ethanamine], the EC50 is at most 10 µM.

The compound `COc1cccc([C@@H](C)NCc2cccc(-c3ccc(NC(C)=O)nc3)c2)c1` [N-(5-(3-((((1R)-1-(3-(methyloxy)phenyl)ethyl)amino)methyl)phenyl)-2-pyridinyl)acetamide] came in with an EC50 of at most 10 µM.

Turning to `COc1ccc(CN[C@H](C)c2cccc3ccccc23)cc1C1CCNCC1` [(1R)-N-((4-(methyloxy)-3-(4-piperidinyl)phenyl)methyl)-1-(1-naphthalenyl)ethanamine], the EC50 is at most 10 µM.

For `COc1ccc(CN[C@H](C)c2ccccc2)cc1-n1cccc1` [(1R)-N-((4-(methyloxy)-3-(1H-pyrrol-1-yl)phenyl)methyl)-1-phenylethanamine], the EC50 is at most 10 µM.

Turning to `COc1ccc(CN[C@H](C)c2cccc3ccccc23)cc1-c1ccc2nonc2c1` [(1R)-N-((3-(2,1,3-benzoxadiazol-5-yl)-4-(methyloxy)phenyl)methyl)-1-(1-naphthalenyl)ethanamine], the EC50 was at most 10 µM.

In turn, `Cc1ccc(-c2cccc(CN[C@H](C)c3cccc4ccccc34)c2)cn1` [(1R)-N-((3-(6-methyl-3-pyridinyl)phenyl)methyl)-1-(1-naphthalenyl)ethanamine] registered an EC50 of at most 10 µM.

In the case of `COc1ccc(-c2cc(CN[C@H](C)c3ccccc3)ccc2O)cc1` [Example 391, 4′-(methyloxy)-5-((((1R)-1-phenylethyl)amino)methyl)-1,1′-biphenyl-2-ol], the EC50 was at most 10 µM.

`C[C@@H](NCc1cccc(-c2cncc(C(N)=O)c2)c1)c1ccc2ccccc2c1` [Example 461, 5-(3-((((1R)-1-(2-naphthalenyl)ethyl)amino)methyl)phenyl)-3-pyridinecarboxamide] gave an EC50 of at most 10 µM.

Turning to `COc1ccc([C@@H](C)NCc2ccc(OC)c(-c3nccs3)c2)cc1` [(1R)-1-(4-(methyloxy)phenyl)-N-((4-(methyloxy)-3-(1,3-thiazol-2-yl)phenyl)methyl)ethanamine], the EC50 is at most 10 µM.

Compound `COc1cccc([C@@H](C)NCc2cccc(-c3ccoc3)c2)c1` [Example 222, (1R)-N-((3-(3-furanyl)phenyl)methyl)-1-(3-(methyloxy)phenyl)ethanamine] came in with an EC50 of at most 10 µM.

In turn, `Cc1ccc([C@@H](C)NCc2cccc(-c3ccoc3)c2)cc1` [Example 224, (1R)-N-((3-(3-furanyl)phenyl)methyl)-1-(4-methylphenyl)ethanamine] came in with an EC50 of at most 10 µM.

As for `COc1ccc(CN[C@H](C)c2ccccc2)cc1-c1cccnc1N1CCOCC1` [(1R)-N-((4-(methyloxy)-3-(2-(4-morpholinyl)-3-pyridinyl)phenyl)methyl)-1-phenylethanamine], the EC50 was at most 10 µM.

`C[C@@H](NCc1cccc(-c2cnccn2)c1)c1ccccc1` [(1R)-1-phenyl-N-((3-(2-pyrazinyl)phenyl)methyl)ethanamine] returned an EC50 of at most 10 µM.

The compound `COc1ccc(CN[C@H](C)c2ccccc2)cc1-c1ccc(N(C)C)nc1` [N,N-dimethyl-5-(2-(methyloxy)-5-((((1R)-1-phenylethyl)amino)methyl)phenyl)-2-pyridinamine] yielded an EC50 of at most 10 µM.

As to `COc1ccc(-c2cc(CN[C@H](C)c3ccccc3)ccc2OC)nn1` [(1R)-N-((4-(methyloxy)-3-(6-(methyloxy)-3-pyridazinyl)phenyl)methyl)-1-phenylethanamine], the EC50 was at most 10 µM.

Compound `C[C@@H](NCc1cccc(-c2ccccn2)c1)c1cccc2ccccc12` [(1R)-1-(1-naphthalenyl)-N-((3-(2-pyridinyl)phenyl)methyl)ethanamine] gave an EC50 of at most 10 µM.

Turning to `COc1ccc(CN[C@H](C)c2cccc3ccccc23)cc1-c1ccc2nn(C)cc2c1` [(1R)-N-((3-(2-methyl-2H-indazol-5-yl)-4-(methyloxy)phenyl)methyl)-1-(1-naphthalenyl)ethanamine], the EC50 is at most 10 µM.

In turn, `COc1ccc(-c2cc(CN[C@H](C)c3ccc(C)cc3)ccc2F)cc1` [(1R)-N-((6-fluoro-4′-(methyloxy)-1,1′-biphenyl-3-yl)methyl)-1-(4-methylphenyl)ethanamine] showed an EC50 of at most 10 µM.

`COc1ccc([C@@H](C)NCc2ccc(F)c(-c3ccc(F)cc3)c2)cc1` [(1R)-N-((4′,6-difluoro-1,1′-biphenyl-3-yl)methyl)-1-(4-(methyloxy)phenyl)ethanamine] yielded an EC50 of at most 10 µM.

`COc1cccc([C@@H](C)NCc2ccc(OC)c(-c3ccc4c(ccn4CC4CC4)c3)c2)c1` [(1R)-N-((3-(1-(cyclopropylmethyl)-1H-indol-5-yl)-4-(methyloxy)phenyl)methyl)-1-(3-(methyloxy)phenyl)ethanamine] registered a half-maximal effective concentration (EC50) of at most 10 µM.

On to `COc1ccc(CN[C@H](C)c2ccccc2)cc1-c1csc(C)n1` [(1R)-N-((4-(methyloxy)-3-(2-methyl-1,3-thiazol-4-yl)phenyl)methyl)-1-phenylethanamine], for which the EC50 was at most 10 µM.

As to `COc1ccc(CN[C@H](C)c2ccccc2)cc1-c1cccc(C#N)c1` [2′-(methyloxy)-5′-((((1R)-1-phenylethyl)amino)methyl)-1,1′-biphenyl-3-carbonitrile], the EC50 is at most 10 µM.
